Legend:
Experiment in all cases: cells
Type in all cases: cell-based
BT549 = system: BT549
Method: (§1) From the stock concentration, 8 serial dilutions (1:5) were made with DMSO.
(§2) Day −1: Plate cells in 100 μl volume in 96 well plate. • Note: Cell number seeded adjusted for growth characteristics, so that at time of assay for proliferation following three-day drug treatment, the control wells should still be in log-growth phase (sub-confluent). Day 0: Drug added to plate for treatment. • A time 0 plate was processed for the proliferation assay to establish a baseline reading at time when drug was added.
(§3) LBNL are following the protocols set up by the NCI/NIH DTP Human Tumor Cell Line Screen Process (http://dtp.nci.nih.gov/branches/btb/ivclsp.html) and summarized below.
(§4) [(Ti−Tz)/(C−Tz)]×100 for concentrations for which Ti>/=Tz
(§5) [(Ti−Tz)/(C−Tz)]×100=50, • which is the drug concentration resulting in a 50% reduction in the net growth in control cells during the drug incubation. TGI: Total growth inhibition is calculated from
(§6) Ti=Tz. • The drug concentration resulting in total growth inhibition (down to the ‘time 0’ baseline). LC50: Net loss of cell growth at 50% is calculated from
(§7) [(Ti−Tz)/Tz]×100=−50. • The concentration of drug resulting in a 50% reduction in the cell number at the end of the drug treatment as compared to that at the beginning (time 0) indicating a net loss of cells following treatment.
(§8) Values are calculated for each of these three parameters if the level of activity is reached; however, if the effect is not reached or is exceeded, the value for that parameter is expressed as greater or less than the maximum or minimum concentration tested.

HCC1419 = system: HCC1419
Method: as §1, §2, §3, §4, §5, §6, §7, §8

HCC1937 = system: HCC1937
Method: as §1, §2, §3, §4, §5, §6, §7, §8

MCF7 = system: MCF7
Method: as §1, §2, §3, §4, §5, §6, §7, §8

MCF10A = system: MCF10A
Method: as §1, §2, §3, §4, §5, §6, §7, §8

HCC38 = system: HCC38
Method: as §1, §2, §3, §4, §5, §6, §7, §8

HCC1187 = system: HCC1187
Method: as §1, §2, §3, §4, §5, §6, §7, §8

T47D = system: T47D
Method: as §1, §2, §3, §4, §5, §6, §7, §8

HCC1806 = system: HCC1806
Method: as §1, §2, §3, §4, §5, §6, §7, §8

UACC893D = system: UACC893D
Method: as §1, §2, §3, §4, §5, §6, §7, §8

BT20 = system: BT20
Method: as §1, §2, §3, §4, §5, §6, §7, §8

SUM159PT = system: SUM159PT
Method: as §1, §2, §3, §4, §5, §6, §7, §8

HCC1954 = system: HCC1954
Method: as §1, §2, §3, §4, §5, §6, §7, §8

HCC1428 = system: HCC1428
Method: as §1, §2, §3, §4, §5, §6, §7, §8

ZR75B = system: ZR75B
Method: as §1, §2, §3, §4, §5, §6, §7, §8

MX-1 = system: MX-1
Method: as §1, §2, §3, §4, §5, §6, §7, §8

MDAMB468D = system: MDAMB468D
Method: as §1, §2, §3, §4, §5, §6, §7, §8

LY2 = system: LY2
Method: as §1, §2, §3, §4, §5, §6, §7, §8

HCC202 = system: HCC202
Method: as §1, §2, §3, §4, §5, §6, §7, §8

UACC812 = system: UACC812
Method: as §1, §2, §3, §4, §5, §6, §7, §8

MCF12A = system: MCF12A
Method: as §1, §2, §3, §4, §5, §6, §7, §8

Hs578T = system: Hs578T
Method: as §1, §2, §3, §4, §5, §6, §7, §8

[1] = Homo sapiens, 50% net loss of cells vs time 0, read-out: LC50 (the source's name)
[2] = Homo sapiens, 72 h, three-day drug treatment, read-out: gIC50

COc1ncc(-c2ccc3nccc(-c4ccnnc4)c3c2)cc1NS(=O)(=O)c1ccc(F)cc1F [Compound B, 2,4-difluoro-N-{2-(methyloxy)-5-[4-(4-pyridazinyl)-6-quinolinyl]-3-pyridinyl}benzenesulfonamide]
TGI (BT549; BT549, total growth inhibition): >33 µM | IC50 (BT549; Homo sapiens, BT-549, 72 h, BT549, three-day drug treatment, read-out: gIC50): 42.7 nM | CC50 (BT549; Homo sapiens, BT-549, BT549, 50% net loss of cells vs time 0, read-out: LC50 (the source's name)): > 33 µM | TGI (HCC1419; HCC1419, total growth inhibition): 5.2 nM | IC50 (HCC1419; Homo sapiens, 72 h, HCC1419, three-day drug treatment, read-out: gIC50): 1.5 nM | CC50 (HCC1419; Homo sapiens, HCC1419, 50% net loss of cells vs time 0, read-out: LC50 (the source's name)): 514 nM | TGI (HCC1937; HCC1937, total growth inhibition): 321.7 nM | IC50 (HCC1937; Homo sapiens, 72 h, HCC1937, three-day drug treatment, read-out: gIC50): 25.4 nM | CC50 (HCC1937; Homo sapiens, HCC1937, 50% net loss of cells vs time 0, read-out: LC50 (the source's name)): ≥ 33 µM | IC50 (MCF7; Homo sapiens, 72 h, MCF7, three-day drug treatment, read-out: gIC50): 7.3 nM | CC50 (MCF7; Homo sapiens, MCF7, 50% net loss of cells vs time 0, read-out: LC50 (the source's name)): 149 nM | TGI (MCF7; MCF7, total growth inhibition): 22.0 nM | IC50 (MCF10A; Homo sapiens, MCF-10A, 72 h, three-day drug treatment, read-out: gIC50): 7.2 nM | TGI (MCF10A; total growth inhibition): 467.7 nM | TGI (HCC38; HCC38, total growth inhibition): 158.5 nM | IC50 (HCC38; Homo sapiens, 72 h, HCC38, three-day drug treatment, read-out: gIC50): 55 nM | CC50 (HCC38; Homo sapiens, HCC38, 50% net loss of cells vs time 0, read-out: LC50 (the source's name)): 355 nM | TGI (HCC1187; HCC1187, total growth inhibition): 35.5 nM | IC50 (HCC1187; Homo sapiens, 72 h, HCC1187, three-day drug treatment, read-out: gIC50): 4.9 nM | CC50 (HCC1187; Homo sapiens, HCC1187, 50% net loss of cells vs time 0, read-out: LC50 (the source's name)): 118 nM | CC50 (T47D; [1]): 1000 nM | IC50 (T47D; [2]): 3.7 nM | TGI (T47D; total growth inhibition): 19.1 nM | TGI (HCC1806; HCC1806, total growth inhibition): 375.1 nM | IC50 (HCC1806; Homo sapiens, 72 h, HCC1806, three-day drug treatment, read-out: gIC50): 26.2 nM | CC50 (HCC1806; Homo sapiens, HCC1806, 50% net loss of cells vs time 0, read-out: LC50 (the source's name)): 2820 nM | IC50 (UACC893D; [2]): 8.8 nM | TGI (UACC893D; total growth inhibition): 20.1 nM | TGI (BT20; BT20, total growth inhibition): 95.5 nM | IC50 (BT20; Homo sapiens, BT-20, 72 h, BT20, three-day drug treatment, read-out: gIC50): 14.8 nM | CC50 (BT20; Homo sapiens, BT-20, BT20, 50% net loss of cells vs time 0, read-out: LC50 (the source's name)): 468 nM | CC50 (SUM159PT; Homo sapiens, SUM-159-PT, 50% net loss of cells vs time 0, read-out: LC50 (the source's name)): > 33 µM | IC50 (SUM159PT; Homo sapiens, SUM-159-PT, 72 h, three-day drug treatment, read-out: gIC50): 10.4 nM | TGI (SUM159PT; total growth inhibition): 940.6 nM | TGI (HCC1954; HCC1954, total growth inhibition): 32.3 nM | IC50 (HCC1954; Homo sapiens, 72 h, HCC1954, three-day drug treatment, read-out: gIC50): 14.3 nM | CC50 (HCC1954; Homo sapiens, HCC1954, 50% net loss of cells vs time 0, read-out: LC50 (the source's name)): 54.2 nM | TGI (HCC1428; HCC1428, total growth inhibition): 158.5 nM | IC50 (HCC1428; Homo sapiens, 72 h, HCC1428, three-day drug treatment, read-out: gIC50): 16.2 nM | CC50 (HCC1428; Homo sapiens, HCC1428, 50% net loss of cells vs time 0, read-out: LC50 (the source's name)): 5.25 µM | CC50 (ZR75B; Homo sapiens, ZR-75B, 50% net loss of cells vs time 0, read-out: LC50 (the source's name)): > 33 µM | IC50 (ZR75B; Homo sapiens, ZR-75B, 72 h, three-day drug treatment, read-out: gIC50): 4.5 nM | TGI (ZR75B; total growth inhibition): 43.4 nM | IC50 (MX-1; Homo sapiens, MX1, 72 h, MX-1, three-day drug treatment, read-out: gIC50): 5.2 nM | CC50 (MX-1; Homo sapiens, MX1, MX-1, 50% net loss of cells vs time 0, read-out: LC50 (the source's name)): 251 nM | TGI (MX-1; MX-1, total growth inhibition): 20.4 nM | CC50 (MDAMB468D; [1]): 2240 nM | IC50 (MDAMB468D; [2]): 31.6 nM | TGI (MDAMB468D; total growth inhibition): 537.0 nM | IC50 (LY2; Homo sapiens, 72 h, LY2, three-day drug treatment, read-out: gIC50): 11 nM | TGI (LY2; LY2, total growth inhibition): 30.2 nM | TGI (HCC202; HCC202, total growth inhibition): 2.6 nM | IC50 (HCC202; Homo sapiens, 72 h, HCC202, three-day drug treatment, read-out: gIC50): 1.1 nM | CC50 (HCC202; Homo sapiens, HCC202, 50% net loss of cells vs time 0, read-out: LC50 (the source's name)): 21.4 nM | IC50 (UACC812; Homo sapiens, UACC-812, 72 h, UACC812, three-day drug treatment, read-out: gIC50): 4.9 nM | TGI (UACC812; UACC812, total growth inhibition): 24.0 nM | IC50 (MCF12A; Homo sapiens, MCF-12A, 72 h, three-day drug treatment, read-out: gIC50): 7.4 nM | TGI (MCF12A; total growth inhibition): 178.5 nM | CC50 (Hs578T; Homo sapiens, Hs-578T, 50% net loss of cells vs time 0, read-out: LC50 (the source's name)): > 33 µM | IC50 (Hs578T; Homo sapiens, Hs-578T, 72 h, three-day drug treatment, read-out: gIC50): 67.4 nM | TGI (Hs578T; total growth inhibition): 4.5562 µM

— patent US20130317037A1, “METHOD OF ADMINISTRATION AND TREATMENT” (GlaxoSmithKline Intellectual Property Development Limited, priority 2010, published 2013)
